From patent publication US20230159532A1, “PARATHYROID HORMONE (PTH) RECEPTOR ANTAGONISTS AND USES THEREOF” (Crinetics Pharmaceuticals, Inc., priority 2021, published 2023)

What follows are compounds tested against T1, human PTHR1 receptor (Homo sapiens, UniProt Q03431) (assay: Competitive antagonist binding assay for hPTH-R1 (radioactive competition binding, SPA beads)). Details: human PTHR1 membranes, [125I]-[Nle8,18,Tyr34]-PTH(1-34) 0.2 nM, 90 minutes at room temperature; read-out: hPTHR1 Ki.
T1 construct: purchased Eurofins HTS030M
T1 sequence (Q03431 27-593): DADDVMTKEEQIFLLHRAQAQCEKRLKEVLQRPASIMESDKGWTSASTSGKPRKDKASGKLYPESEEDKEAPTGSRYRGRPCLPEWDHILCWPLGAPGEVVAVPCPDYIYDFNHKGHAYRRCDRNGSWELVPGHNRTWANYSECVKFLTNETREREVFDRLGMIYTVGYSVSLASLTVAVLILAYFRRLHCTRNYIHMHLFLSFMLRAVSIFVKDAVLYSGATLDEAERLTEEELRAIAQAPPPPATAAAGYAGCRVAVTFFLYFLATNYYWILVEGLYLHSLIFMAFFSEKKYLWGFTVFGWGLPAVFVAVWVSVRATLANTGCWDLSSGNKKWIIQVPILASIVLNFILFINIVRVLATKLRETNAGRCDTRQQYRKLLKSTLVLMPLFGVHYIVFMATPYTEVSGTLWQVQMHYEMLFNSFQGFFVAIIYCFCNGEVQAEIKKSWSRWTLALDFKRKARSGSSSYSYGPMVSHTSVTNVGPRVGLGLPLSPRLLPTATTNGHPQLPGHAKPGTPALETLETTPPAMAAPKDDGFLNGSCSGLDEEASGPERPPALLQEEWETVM
Outline: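 Human PTHR1 membranes on SPA beads incubated 90 min at room temperature with compound (typically 0-10,000 nM final) and 0.2 nM [125I]-[Nle8,18,Tyr34]-PTH(1-34) in HEPES buffer with MgCl2, CaCl2, BSA, Triton X-100 and protease inhibitors, pH 7.4. Scintillation signal read; Ki values derived.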

SMILES | Ki
CCN1C(=O)N(c2c(F)cc(N3CC[C@@H](N)C3)cc2F)c2cc(Cl)cc(C)c2-c2cc(F)cnc21 [1-65, 10-{4-[(3R)-3-aminopyrrolidin-1-yl]-2,6-difluorophenyl}-13-chloro-8-ethyl-4-fluoro-15-methyl-6,8,10-triazatricyclo[9.4.0.0^2,7]pentadeca-1(11),2(7),3,5,12,14-hexaen-9-one] | < 100 nM
CCN1C(=O)N(c2c(F)cc(N[C@@H](C)CNCCO)cc2F)c2cc(Cl)ccc2-c2cc(Cl)cnc21 [1-71, 4,13-dichloro-10-(2,6-difluoro-4-{[(2S)-1-[(2-hydroxyethyl)amino]propan-2-yl]amino}phenyl)-8-ethyl-6,8,10-triazatricyclo[9.4.0.0^2,7]pentadeca-1(11),2(7),3,5,12,14-hexaen-9-one] | < 100 nM
Cc1cc(Cl)cc2c1-c1cc(F)cnc1N(C)C(=O)N2c1c(F)cc(NCCNCCCC(=O)O)cc1F [1-77, 4-({2-[(4-{13-chloro-4-fluoro-8,15-dimethyl-9-oxo-6,8,10-triazatricyclo[9.4.0.0^2,7]pentadeca-1(11),2(7),3,5,12,14-hexaen-10-yl}-3,5-difluorophenyl)amino]ethyl}amino)butanoic acid] | < 100 nM
CCN1C(=O)N(c2c(F)cc(N3CCNCC3)cc2F)c2cc(C#N)ccc2-c2cc(Cl)cnc21 [1-136, 4-chloro-10-[2,6-difluoro-4-(piperazin-1-yl)phenyl]-8-ethyl-9-oxo-6,8,10-triazatricyclo[9.4.0.0^2,7]pentadeca-1(11),2(7),3,5,12,14-hexaene-13-carbonitrile] | 100 to 1000 nM
CCN1C(=O)N(c2c(F)cc(NCCNC)cc2F)c2cc(Cl)ccc2-c2cc(C(F)(F)F)cnc21 [1-57, 13-chloro-10-(2,6-difluoro-4-{[2-(methylamino)ethyl]amino}phenyl)-8-ethyl-4-(trifluoromethyl)-6,8,10-triazatricyclo[9.4.0.0^2,7]pentadeca-1(11),2(7),3,5,12,14-hexaen-9-one] | < 100 nM
CCN1C(=O)N(c2c(F)cc(NCCNCC(N)CO)cc2F)c2cc(C#N)ccc2-c2cc(Cl)cnc21 (stereo not shown) [1-225, 10-[4-({2-[(2-amino-3-hydroxypropyl)amino]ethyl}amino)-2,6-difluorophenyl]-4-chloro-8-ethyl-9-oxo-6,8,10-triazatricyclo[9.4.0.0^2,7]pentadeca-1(11),2(7),3,5,12,14-hexaene-13-carbonitrile] | < 100 nM
CCN1C(=O)N(c2c(F)cc(NCCNCCO)cc2F)c2cc(C#N)c(C)cc2-c2cc(F)cnc21 [3-20, 10-[2,6-difluoro-4-({2-[(2-hydroxyethyl)amino]ethyl}amino)phenyl]-8-ethyl-4-fluoro-14-methyl-9-oxo-6,8,10-triazatricyclo[9.4.0.0^2,7]pentadeca-1(11),2(7),3,5,12,14-hexaene-13-carbonitrile] | < 100 nM
CCN1C(=O)N(c2c(F)cc(NCCNCCOCCO)cc2F)c2cc(C#N)ccc2-c2cc(Cl)cnc21 [1-181, 4-chloro-10-{2,6-difluoro-4-[(2-{[2-(2-hydroxyethoxy)ethyl]amino}ethyl)amino]phenyl}-8-ethyl-9-oxo-6,8,10-triazatricyclo[9.4.0.0^2,7]pentadeca-1(11),2(7),3,5,12,14-hexaene-13-carbonitrile] | < 100 nM
CCN1C(=O)N(c2c(F)cc(NCCN3CCNC(=O)C3)cc2F)c2cc(C#N)ccc2-c2cc(Cl)cnc21 [1-128, 4-chloro-10-(2,6-difluoro-4-{[2-(3-oxopiperazin-1-yl)ethyl]amino}phenyl)-8-ethyl-9-oxo-6,8,10-triazatricyclo[9.4.0.0^2,7]pentadeca-1(11),2(7),3,5,12,14-hexaene-13-carbonitrile] | 100 to 1000 nM
CCN1C(=O)N(c2c(F)cc(NCCN3CCNCC3)cc2F)c2cc(C#N)ccc2-c2cc(Cl)cnc21 [1-155, 4-chloro-10-(2,6-difluoro-4-{[2-(piperazin-1-yl)ethyl]amino}phenyl)-8-ethyl-9-oxo-6,8,10-triazatricyclo[9.4.0.0^2,7]pentadeca-1(11),2(7),3,5,12,14-hexaene-13-carbonitrile] | < 100 nM
CCN1C(=O)N(c2c(F)cc(NCCN3CC[C@@H](O)C3)cc2F)c2cc(C#N)ccc2-c2cc(Cl)cnc21 [1-231, 4-chloro-10-[2,6-difluoro-4-({2-[(3R)-3-hydroxypyrrolidin-1-yl]ethyl}amino)phenyl]-8-ethyl-9-oxo-6,8,10-triazatricyclo[9.4.0.0^2,7]pentadeca-1(11),2(7),3,5,12,14-hexaene-13-carbonitrile] | < 100 nM
CC(C)N1C(=O)N(c2c(F)cc(NCCNCCCC(=O)O)cc2F)c2cc(C#N)ccc2-c2cc(F)cnc21 [1-86, 4-{[2-({4-[13-cyano-4-fluoro-9-oxo-8-(propan-2-yl)-6,8,10-triazatricyclo[9.4.0.0^2,7]pentadeca-1(11),2(7),3,5,12,14-hexaen-10-yl]-3,5-difluorophenyl}amino)ethyl]amino}butanoic acid] | < 100 nM
CCN1C(=O)N(c2c(F)cc(NCCNCCO)cc2F)c2cc(F)ccc2-c2cc(Cl)cnc21 [1-129, 4-chloro-10-[2,6-difluoro-4-({2-[(2-hydroxyethyl)amino]ethyl}amino)phenyl]-8-ethyl-13-fluoro-6,8,10-triazatricyclo[9.4.0.0^2,7]pentadeca-1(11),2(7),3,5,12,14-hexaen-9-one] | < 100 nM
CCN1C(=O)N(c2c(F)cc(NCCNCC(C)(C)O)cc2F)c2cc(C#N)ccc2-c2cc(Cl)cnc21 [1-138, 4-chloro-10-[2,6-difluoro-4-({2-[(2-hydroxy-2-methylpropyl)amino]ethyl}amino)phenyl]-8-ethyl-9-oxo-6,8,10-triazatricyclo[9.4.0.0^2,7]pentadeca-1(11),2(7),3,5,12,14-hexaene-13-carbonitrile] | < 100 nM
CCN1C(=O)N(c2c(F)cc(N[C@H](C)CNC)cc2F)c2cc(C#N)ccc2-c2cc(Cl)cnc21 [1-159, 4-chloro-10-(2,6-difluoro-4-{[(2R)-1-(methylamino)propan-2-yl]amino}phenyl)-8-ethyl-9-oxo-6,8,10-triazatricyclo[9.4.0.0^2,7]pentadeca-1(11),2(7),3,5,12,14-hexaene-13-carbonitrile] | < 100 nM
CNCCNc1cc(F)c(N2C(=O)N(C(C)C)c3ncc(F)cc3-c3c(F)cc(C#N)cc32)c(F)c1 [1-107, 10-(2,6-difluoro-4-{[2-(methylamino)ethyl]amino}phenyl)-4,15-difluoro-9-oxo-8-(propan-2-yl)-6,8,10-triazatricyclo[9.4.0.0^2,7]pentadeca-1(11),2(7),3,5,12,14-hexaene-13-carbonitrile] | < 100 nM
CCN1C(=O)N(c2c(F)cc(NCCNC[C@H](C)O)cc2F)c2cc(C#N)ccc2-c2cc(Cl)cnc21 [1-180, 4-chloro-10-{2,6-difluoro-4-[(2-{[(2S)-2-hydroxypropyl]amino}ethyl)amino]phenyl}-8-ethyl-9-oxo-6,8,10-triazatricyclo[9.4.0.0^2,7]pentadeca-1(11),2(7),3,5,12,14-hexaene-13-carbonitrile] | < 100 nM
CCN1C(=O)N(c2c(F)cc(NCCNC)cc2F)c2cc(Cl)ccc2-c2c1ncc(F)c2C [3-7, 13-chloro-10-(2,6-difluoro-4-{[2-(methylamino)ethyl]amino}phenyl)-8-ethyl-4-fluoro-3-methyl-6,8,10-triazatricyclo[9.4.0.0^2,7]pentadeca-1(11),2(7),3,5,12,14-hexaen-9-one] | < 100 nM
CCN1C(=O)N(c2c(F)cc(NCCNCCC(N)=O)cc2F)c2cc(C#N)ccc2-c2cc(Cl)cnc21 [1-161, 3-({2-[(4-{4-chloro-13-cyano-8-ethyl-9-oxo-6,8,10-triazatricyclo[9.4.0.0^2,7]pentadeca-1(11),2(7),3,5,12,14-hexaen-10-yl}-3,5-difluorophenyl)amino]ethyl}amino)propanamide] | < 100 nM
CNCCNc1cc(F)c(N2C(=O)N(C)c3ncc(F)cc3-c3c(C)cc(Cl)cc32)c(F)c1 [1-75, 13-chloro-10-(2,6-difluoro-4-{[2-(methylamino)ethyl]amino}phenyl)-4-fluoro-8,15-dimethyl-6,8,10-triazatricyclo[9.4.0.0^2,7]pentadeca-1(11),2(7),3,5,12,14-hexaen-9-one] | < 100 nM
CN1C(=O)N(c2c(F)cc(NCCNCCO)cc2F)c2cc(Cl)ccc2-c2cc(Cl)cnc21 [1-34, 4,13-dichloro-10-[2,6-difluoro-4-({2-[(2-hydroxyethyl)amino]ethyl}amino)phenyl]-8-methyl-6,8,10-triazatricyclo[9.4.0.0^2,7]pentadeca-1(11),2(7),3,5,12,14-hexaen-9-one] | < 100 nM
CCN1C(=O)N(c2c(F)cc(NCCN[C@H]3C[C@H](O)C3)cc2F)c2cc(C#N)ccc2-c2cc(C(F)(F)F)cnc21 [1-224, 10-{2,6-difluoro-4-[(2-{[(1r,3r)-3-hydroxycyclobutyl]amino}ethyl)amino]phenyl}-8-ethyl-9-oxo-4-(trifluoromethyl)-6,8,10-triazatricyclo[9.4.0.0^2,7]pentadeca-1(11),2(7),3,5,12,14-hexaene-13-carbonitrile] | < 100 nM
